From patent publication US10435379B2, “[4-(1,3,3-trimethyl-2-OXO-3,4-dihydro-1H-quinoxalin-7-yl)phenoxy]ethyloxy compound or salt thereof” (SANTEN PHARMACEUTICAL CO., LTD., priority 2015, dated 2019)

biological target: Recombinant human GR (Homo sapiens (Human), UniProt P04150); assay: GR binding activity evaluation test (GR competitive binding assay, fluorescence polarization); conditions: 20 μM test compound solution, 10 μL/well; 2 mM DEX as positive control; 2 hours at room temperature
Procedure: In order to evaluate a binding activity of the present compound to GR, a GR receptor competitor assay was carried out by a fluorescence polarization method. In the assay, a GR competitive binding assay kit (manufactured by Invitrogen, cat No. P2816) was used for the assay, and a procedure was carried out according to the protocol attached to the kit. Hereinafter, the specific method will be described.
GR screening buffer: A buffer containing 10 mM of potassium phosphate (pH 7.4), 20 mM of sodium molybdate (Na2MoO4), 0.1 mM of ethylene diamine tetraacetic acid (EDTA), 5 mM of dithiothreitol (DTT), 0.1 mM of stabilizing peptide and 2% of dimethylsulfoxide was prepared.
4×GS1 solution: Fluormone™ GS1, which is a fluorescent glucocorticoid ligand, was diluted with GR screening buffer, whereby a 4 nM solution was prepared. […]
5) The plate was incubated in a dark place at room temperature for 2 hours, and fluorescence polarization of each well was measured.
A GR binding ratio (%) was calculated from the following equation. GR binding ratio (%)=100×{1−(fluorescence polarization of test compound solution−average value of fluorescence polarization of positive control solution)/(average value of fluorescence polarization of negative control solution−average value of fluorescence polarization of positive control solution)} (Test Results and Discussion)

Recombinant human GR, sequence (P04150 whole entry): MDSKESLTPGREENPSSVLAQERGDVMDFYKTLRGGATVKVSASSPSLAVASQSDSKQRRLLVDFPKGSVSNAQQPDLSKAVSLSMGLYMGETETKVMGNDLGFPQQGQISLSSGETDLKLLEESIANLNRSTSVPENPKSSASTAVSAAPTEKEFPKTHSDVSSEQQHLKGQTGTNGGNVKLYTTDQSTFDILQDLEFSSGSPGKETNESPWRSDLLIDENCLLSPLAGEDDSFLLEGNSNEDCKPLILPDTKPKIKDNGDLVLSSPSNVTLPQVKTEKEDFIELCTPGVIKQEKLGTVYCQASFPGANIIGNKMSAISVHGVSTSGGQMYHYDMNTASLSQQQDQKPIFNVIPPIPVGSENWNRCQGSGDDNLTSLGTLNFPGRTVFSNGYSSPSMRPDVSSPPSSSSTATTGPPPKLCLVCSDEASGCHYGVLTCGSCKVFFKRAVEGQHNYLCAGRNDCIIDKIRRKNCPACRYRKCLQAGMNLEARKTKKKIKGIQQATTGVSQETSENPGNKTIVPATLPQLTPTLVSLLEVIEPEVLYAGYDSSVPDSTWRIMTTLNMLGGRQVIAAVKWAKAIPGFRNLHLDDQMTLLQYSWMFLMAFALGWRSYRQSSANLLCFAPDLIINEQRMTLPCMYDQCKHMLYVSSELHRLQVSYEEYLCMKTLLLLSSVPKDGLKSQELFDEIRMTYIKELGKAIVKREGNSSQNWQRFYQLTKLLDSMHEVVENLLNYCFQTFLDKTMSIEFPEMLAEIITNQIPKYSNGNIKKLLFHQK

| GR binding rate (%) | SMILES |
| --- | --- |
| >99% | COc1cc(OCC(O)CO)ccc1-c1ccc2c(c1COc1cc(F)ccc1C)N(C)C(=O)C(C)(C)N2 (stereo not drawn) [Compound 4-1, 7-[4-(2,3-dihydroxypropyl)oxy-2-methoxyphenyl]-8-(5-fluoro-2-methylphenoxymethyl)-1,3,3-trimethyl-3,4-dihydro-1H-quinoxalin-2-one] |

test system: IL-6 production in human corneal epithelium cell line (HCE-T); assay: IL-6 production inhibitory action evaluation test after LPS stimulation; type: cell-based; conditions: 4 hours, 100 μM test compound solution 10 μL/well, DEX treated group = 100
Procedure: To evaluate the action of the present compounds as a GR agonist, IL-6 production inhibitory action in human corneal epithelial cell line after LPS stimulation was examined The IL-6 production was measured by using the HTRF method (Cat No. 62IL6PEB manufactured by Cisbio Bioassays, Inc.) according to the attached protocol. The specific method is described below.
LPS solution: After dissolving LPS in PBS(−), the resulting solution was diluted with a culture solution, whereby an LPS solution with a 1 μg/mL concentration was prepared.
After dissolving the test compound in dimethylsulfoxide, the solution was diluted with a 10% FBS-DMEM/Ham's F12 medium, whereby a 100 μM of the test compound solution was prepared. […] In addition, DEX was similarly dissolved, whereby a 100 μM concentration of the DEX solution was prepared, and an IL-6 production inhibitory ratio of DEX was measured, and used for calculation of Efficacy (% DEX).
Used cells: human corneal epithelium cell line (HCE-T) (RIKEN, Institute of Physical and Chemical Research)
The cells continued to subculture according to this method were used for the test.
(Calculation of IL-6 Production Inhibitory Ratio)
The IL-6 production inhibitory ratio (%) was calculated by the following formula. IL-6 production inhibitory ratio (%)=100×{1−(IL-6 produced amount of each test compound solution−average value of IL-6 produced amount of negative control group)/(average value of IL-6 produced amount of positive control group−average value of IL-6 produced amount of negative control group)}(%)
Further, the IL-6 production inhibitory ratio (Efficacy (% DEX)) when the DEX treated group was made 100 was calculated. Efficacy (% DEX)=100×{(average value of IL-6 production inhibitory ratio of each test compound solution)/(average value of IL-6 production inhibitory ratio of DEX treated group)}(%)
In addition, IC50 was calculated according to a conventional method. IDBS XLfit4 was used for the calculation.

| SMILES | IL-6 production inhibitory ratio (% DEX) |
| --- | --- |
| COc1cc(OC[C@H](O)CC#N)ccc1-c1ccc2c(c1COc1cc(F)ccc1C)N(C)C(=O)C(C)(C)N2 [Compound 5-1, (R)-7-[4-(3-cyano-2-hydroxypropyl)oxy-2-methoxyphenyl]-8-(5-fluoro-2-methyl-phenoxymethyl)-1,3,3-trimethyl-3,4-dihydro-1H-quinoxalin-2-one] | 98 % DEX |
| COc1cc(OC[C@@H](O)CC#N)ccc1-c1ccc2c(c1COc1cc(F)ccc1C)N(C)C(=O)C(C)(C)N2 [Compound 5-2, (S)-7-[4-(3-cyano-2-hydroxypropyl)oxy-2-methoxyphenyl]-8-(5-fluoro-2-methyl-phenoxymethyl)-1,3,3-trimethyl-3,4-dihydro-1H-quinoxalin-2-one] | >99 % DEX |
| COc1cc(OCC(O)CC(=O)OC(C)(C)C)ccc1-c1ccc2c(c1COc1cc(F)ccc1C)N(C)C(=O)C(C)(C)N2 (stereo not drawn) [Compound 7-2, 7-[4-(3-t-butoxycarbonyl-2-hydroxypropyl)oxy-2-methoxyphenyl]-8-(5-fluoro-2-methylphenoxymethyl)-1,3,3-trimethyl-3,4-dihydro-1H-quinoxalin-2-one] | >99 % DEX |
| CC[C@@H](O)COc1ccc(-c2ccc3c(c2COc2cc(F)ccc2C)N(C)C(=O)C(C)(C)N3)c(OC)c1 [Compound 1-4, (R)-8-(5-fluoro-2-methylphenoxymethyl)-7-[4-(2-hydroxybutyl)oxy-2-methoxyphenyl]-1,3,3-trimethyl-3,4-dihydro-1H-quinoxalin-2-one] | 92 % DEX |
| COc1ccc(O)cc1-c1ccc2c(c1COc1cc(F)ccc1C)N(C)C(=O)C(C)(C)N2 [Control compound C, 8-(5-fluoro-2-methylphenoxymethyl)-7-(5-hydroxy-2-methoxyphenyl)-1,3,3-trimethyl-3,4-dihydro-1H-quinoxalin-2-one, reference compound] | 71 % DEX |
